US20220226321A1, “INHIBITOR OF MNK FOR THE TREATMENT OF NEUROPATHIC PAIN” (Board of Regents, The University of Texas System, priority 2019, published 2022)
“Also recorded” adds a separate entry of the source.

Experiments:
[1] = system: DRG neurons; experiment: whole-cell patch recording of acutely dissociated DRG neurons; type: cell-based, mouse
Method: Acute dissociation of mouse DRG neurons. Thirty mice were deeply anesthetized with isoflurane and the bilateral C4-5, T3-5, and L4-5 ganglia were surgically exposed and removed. The ganglia were placed in a flask containing trypsin (6.25 μg/mL, Hyclone) and type IA collagenase (0.25 mg/mL, Sigma-Aldrich) in DMEM and shaken for 50 min in a heated (37° C.) bath. After the cells were washed and mechanically dispersed with a fire polished Pasteur pipette, they were plated on poly-L-lysine-coated glass sheets and held in culture dishes with DMEM (10% FBS) until use within 6 hours after plating.
Whole-cell patch recording of spontaneous and evoked action potential in acutely dissociated mice DRG neurons. A previously described protocol was used (Li et al., 2017) for current-clamp recording. The internal solution contained 135 mM K-gluconate, 5 mM KCl, 5 mM Mg-ATP, 0.5 mM Na2GTP, 5 mM HEPES, 2 mM MgCl2, 5 mM EGTA, and 0.5 mM CaCl2 adjusted to pH 7.4 with KOH and the bath ACSF solution. DRG neurons were held at 0 pA, and the action potential current threshold was evoked using a series of 300-ms depolarizing current injections in 10-pA steps from −50 pA. The current that induced the first action potential that was defined as 1× rheobase. Only neurons with a resting membrane potential of at least −40 mV, stable baseline recordings, and evoked spikes that overshot 0 mV were used for further experiments and analysis. The DRG neurons were then held at 0 pA to record spontaneous action potential for 5 min. The different times rheobase injections for 500 ms was applied to induce action potential spike-burst responses. Series resistance (Rs) was compensated to above 70% for the recorded DRG neurons. All recordings were made at room temperature.

[2] = system: DRG; experiment: Western blot (immunoblot) of DRG tissue after paclitaxel or eFT508 in vivo; design: species or system mouse; settings: Veh=100
[3] = system: DRG neurons; experiment: whole-cell patch clamp of cultured DRG neurons treated with IL-6 and eFT508; type: cell-based, mouse
Method: Phosphorylation of the 5′ cap-binding protein eIF4E by MAPK interacting kinases MNK1/2 is important for nociceptor sensitization and the development of chronic pain. IL-6 induced DRG nociceptor excitability is attenuated in mice lacking eIF4E phosphorylation, in MNK1/2^−/− mice and by the nonselective MNK1/2 inhibitor cercosporamide. […] Dorsal root ganglion (DRG) neurons were cultured from male and female ICR mice, 4-7 weeks old. […] Whole-cell patch clamp recordings were done on small diameter neurons (20-30 pF) to measure membrane excitability in response to ramp depolarization. […] These findings are consistent with a model wherein MNK-eIF4E signaling controls the translation of signaling factors that regulate T-type VGCCs in response to IL-6 treatment.

[4] = system: paclitaxel-treated mice; experiment: thermal latency (Hot/Cold plate) in paclitaxel-induced CIPN; type: in vivo, mouse; settings: for thermal hyperalgesia: acute treatment
Method: Thermal and mechanical testing. Mice were housed on 12-hr light-/dark cycles with lights on at 7:00 AM. Mice had food and water available ad libitum. All behavioral experiments were performed between the hours of 9:00 AM and 6:00 PM. Mice were randomized to groups from multiple cages to avoid using mice from experimental groups that were cohabitating. Sample size was estimated as […] using a power calculation with 80% power, expectations of 50% effect size, with alpha set to 0.05. The number of animals used in each experiment was based on available animals of the appropriate sex and age but was at least n=5 for experiments. Standard deviation for power calculations was based on previously published data using similar models. Mice were habituated for 1 hr to clear acrylic behavioral chambers before beginning the experiment. Mechanical paw withdrawal thresholds were measured using the up-down method (Chaplan et al., 1994) with calibrated Von Frey filaments (Stoelting Company, Wood Dale, Ill.). Thermal latency was measured using a Hot/Cold plate setting the temperature at 49, 50 and 52° C. […] The experimenter was blinded to the genotype of the mice and drug condition in all experiments.

[5] = system: mice; experiment: open field; type: in vivo, mouse; settings: 10 mg/kg i.p., 1 hour; vehicle had the same effect
Method: Open field. […] Movement in the maze was video recorded for 10 minutes via ceiling-mounted cameras and tracked using a custom script in MATLAB-2015b. The script outputs total distance traveled and path tracking.

[6] = DRGs in vivo after eFT508 treatment
[7] = DRG, day 10 after induction of CIPN

SMILES: Cc1cc(Nc2cc(N)ncn2)c(=O)n2c1C(=O)NC21CCCCC1 [eFT508, Tomivosertib]
- spontaneous activity in DRG neurons from paclitaxel treated mice [1]: strongly suppressed; also recorded: decreases spontaneous activity
- toxicity to DRG neurons in vitro [1]: not toxic
- treatment time needed to reduce spontaneous activity in most neurons ([1]; DRG neurons from paclitaxel treated mice): Approximately 20 min
- RagA, immunoblot [2, 6]: 67±6.02
- p4EBP1, immunoblot [2, 6]: 53.12±7.03
- p-eIF4E, immunoblot [2, 6]: 10±2.43
- latency to the first action potential in the ramp protocol ([3]; IL-6, eFT508 pretreatment): rescued
- action potential firing in response to ramp depolarization ([3]; one hr IL-6, eFT508 pretreatment followed by IL-6): blocked
- thermal hypersensitivity ([4]; 10 mg/kg after full development of CIPN): reversal
- thermal hyperalgesia ([4]; at 3 hrs): did not significantly attenuate
- thermal hyperalgesia ([4]; at 24 hrs): a significant effect was observed
- movement speed in the open field vs naïve mice [5]: moved significantly slower

SMILES: CC(=O)O[C@H]1C(=O)[C@@]2(C)[C@H]([C@H](OC(=O)c3ccccc3)[C@]3(O)C[C@H](OC(=O)[C@H](O)[C@@H](NC(=O)c4ccccc4)c4ccccc4)C(C)=C1C3(C)C)[C@]1(OC(C)=O)CO[C@@H]1C[C@@H]2O [paclitaxel]
- spontaneous activity and nociceptor excitability ([1]; cervical, thoracic and lumbar DRGs, day 10, paclitaxel 4 mg/kg every other day i.p.): caused spontaneous activity and increased nociceptor excitability
- Esyt1 protein, immunoblot ([2]; DRG after CIPN induction): 230±18.30
- mTOR, immunoblot ([2]; DRG after paclitaxel treatment): 195±25.27
- p-4EBP1, immunoblot ([2]; DRG after paclitaxel treatment): 152±11.27
- p-eIF4E, immunoblot ([2]; DRG after paclitaxel treatment): 158±10.57
- p-mTOR, immunoblot ([2]; DRG after paclitaxel treatment): 131±20.27
- RagA protein level, immunoblot ([2]; DRG of eIF4E^S209A mice, paclitaxel vs vehicle): 75±8.46
- S6, immunoblot [2, 7]: 133±24.54
- p-Akt, immunoblot [2, 7]: 96.86±6.63
- p-ERK1/2, immunoblot [2, 7]: 107±14.94
- p-S6, immunoblot [2, 7]: 134±24.47
- RagA protein level, immunoblot ([2]; DRGs after CIPN): 181±15.35
